Source: patent publication US20250135006A1, “AMPHIPHILIC TLR7/8 ADJUVANTS AND USES THEREOF” (Pfizer Inc., priority 2023, published 2025)

What was measured:
[1] = target: T1, human toll like receptor 8 (hTLR8) (Homo sapiens, UniProt Q9NR97); assay: hTLR8 in-vitro functional assay (HEK-Blue hTLR8 SEAP reporter); type: cell-based; details: HEK-Blue hTLR8 cells, overnight incubation
T1 construct: host or cells: HEK293 (HEK-Blue hTLR8)
T1 sequence (Q9NR97 27-1041): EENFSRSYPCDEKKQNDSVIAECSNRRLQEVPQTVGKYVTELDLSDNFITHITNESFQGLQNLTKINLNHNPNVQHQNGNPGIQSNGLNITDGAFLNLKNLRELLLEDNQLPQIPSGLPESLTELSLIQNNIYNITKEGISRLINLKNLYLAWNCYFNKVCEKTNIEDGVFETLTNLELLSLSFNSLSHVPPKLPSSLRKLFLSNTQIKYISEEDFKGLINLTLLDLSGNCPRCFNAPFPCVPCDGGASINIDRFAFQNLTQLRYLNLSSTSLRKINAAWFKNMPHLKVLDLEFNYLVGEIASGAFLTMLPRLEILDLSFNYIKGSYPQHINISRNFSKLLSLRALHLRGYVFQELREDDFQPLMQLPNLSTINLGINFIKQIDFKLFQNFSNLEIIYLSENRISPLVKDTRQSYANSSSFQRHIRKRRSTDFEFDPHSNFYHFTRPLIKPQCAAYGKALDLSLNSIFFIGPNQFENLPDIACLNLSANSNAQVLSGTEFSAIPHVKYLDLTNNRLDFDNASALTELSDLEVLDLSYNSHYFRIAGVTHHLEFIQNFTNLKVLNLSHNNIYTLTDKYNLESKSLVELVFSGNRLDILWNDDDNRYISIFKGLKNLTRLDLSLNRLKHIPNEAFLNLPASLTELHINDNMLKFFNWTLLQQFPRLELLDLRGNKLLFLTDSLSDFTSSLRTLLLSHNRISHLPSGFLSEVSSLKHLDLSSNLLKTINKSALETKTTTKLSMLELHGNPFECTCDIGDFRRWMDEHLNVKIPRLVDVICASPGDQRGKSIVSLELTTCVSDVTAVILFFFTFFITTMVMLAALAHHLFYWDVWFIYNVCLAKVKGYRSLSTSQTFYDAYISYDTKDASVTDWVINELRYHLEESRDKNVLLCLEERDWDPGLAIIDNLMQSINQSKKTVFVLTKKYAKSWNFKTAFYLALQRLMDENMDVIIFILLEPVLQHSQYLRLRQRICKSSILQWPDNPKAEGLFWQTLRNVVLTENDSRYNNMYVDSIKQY
Text: (§1) To determine the ability of test compounds to activate the human toll like receptor 7 (hTLR7) or human toll like receptor 8 (hTLR8), cell-based reporter systems were utilized. HEK293 cells stably overexpressing either hTLR7 or hTLR8 along with a reporter gene containing an optimized secreted embryonic alkaline phosphatase gene (SEAP), under the control of the IFN-b minimal promoter fused to five NF-kB and AP-1-binding sites, were obtained from Invivogen (HEK-Blue™ hTLR7, cat #Hkb-htlr7; HEK-Blue™ hTLR8, cat #Hkb-htlr8). Stimulation of hTLR7 or hTLR8 in these cells activates NF-kB and AP-1 and induces the production of SEAP which can be quantified using an alkaline phosphatase detection reagent.
(§2) On day one of the assay, compounds were prepared using 11-point half-log serial dilutions from a 10 mM DMSO stock solution and 50 nL was spotted into 384-well plates (PerkinElmer, cat #6007480). Positive and negative controls were also spotted within the assay plate and were used to determine percent effect during the analysis process. After resuspension in DMEM assay media containing FBS heat inactivated (10%), Glutamax (2 mM) and Penicillin/Streptomycin, 10,000 cells/20 ul/well were added to previously prepared compound plates. Plates were incubated overnight (16-20 hrs) at 37° C. in a 5% CO2 environment. Prewetted Microclime lids (Labcyte, LLS-0310) were used to prevent evaporation. On day two of the assay, QUANTI-Blue™ detection reagent was prepared by reconstituting QUANTI-Blue™ powder (InvivoGen, Rep-qb1) with 100 ml of sterile water and allowed to equilibrate to 37° C. for 15 minutes. 20 ul of QUANTI-Blue™ detection reagent was added to each well and plates were incubated at room temperature for 180 min. At the end of the incubation, plates were read on an Envision (Perkin Elmer) plate reader capturing absorbance at 650 nm.
(§3) Using Positive (tool compound) and Negative (DMSO) controls, the percent (%) effect was calculated for each sample using the following equation: […]
(§4) The % effect at each concentration of compound was calculated utilizing the ABase software suite (IBDS) and was relative to the amount of SEAP produced in the positive and negative control wells contained within each assay plate. The concentrations and % effect values for test compounds were fit using a 4-parameter logistic model in ABase and the concentration of compound that produced 50% response (EC50) was calculated.

[2] = target: T2, human toll like receptor 7 (hTLR7) (Homo sapiens, UniProt Q9NYK1); assay: hTLR7 in-vitro functional assay (HEK-Blue hTLR7 SEAP reporter); type: cell-based; details: HEK-Blue hTLR7 cells, overnight incubation
T2 construct: host or cells: HEK293 (HEK-Blue hTLR7)
T2 sequence (Q9NYK1 27-1049): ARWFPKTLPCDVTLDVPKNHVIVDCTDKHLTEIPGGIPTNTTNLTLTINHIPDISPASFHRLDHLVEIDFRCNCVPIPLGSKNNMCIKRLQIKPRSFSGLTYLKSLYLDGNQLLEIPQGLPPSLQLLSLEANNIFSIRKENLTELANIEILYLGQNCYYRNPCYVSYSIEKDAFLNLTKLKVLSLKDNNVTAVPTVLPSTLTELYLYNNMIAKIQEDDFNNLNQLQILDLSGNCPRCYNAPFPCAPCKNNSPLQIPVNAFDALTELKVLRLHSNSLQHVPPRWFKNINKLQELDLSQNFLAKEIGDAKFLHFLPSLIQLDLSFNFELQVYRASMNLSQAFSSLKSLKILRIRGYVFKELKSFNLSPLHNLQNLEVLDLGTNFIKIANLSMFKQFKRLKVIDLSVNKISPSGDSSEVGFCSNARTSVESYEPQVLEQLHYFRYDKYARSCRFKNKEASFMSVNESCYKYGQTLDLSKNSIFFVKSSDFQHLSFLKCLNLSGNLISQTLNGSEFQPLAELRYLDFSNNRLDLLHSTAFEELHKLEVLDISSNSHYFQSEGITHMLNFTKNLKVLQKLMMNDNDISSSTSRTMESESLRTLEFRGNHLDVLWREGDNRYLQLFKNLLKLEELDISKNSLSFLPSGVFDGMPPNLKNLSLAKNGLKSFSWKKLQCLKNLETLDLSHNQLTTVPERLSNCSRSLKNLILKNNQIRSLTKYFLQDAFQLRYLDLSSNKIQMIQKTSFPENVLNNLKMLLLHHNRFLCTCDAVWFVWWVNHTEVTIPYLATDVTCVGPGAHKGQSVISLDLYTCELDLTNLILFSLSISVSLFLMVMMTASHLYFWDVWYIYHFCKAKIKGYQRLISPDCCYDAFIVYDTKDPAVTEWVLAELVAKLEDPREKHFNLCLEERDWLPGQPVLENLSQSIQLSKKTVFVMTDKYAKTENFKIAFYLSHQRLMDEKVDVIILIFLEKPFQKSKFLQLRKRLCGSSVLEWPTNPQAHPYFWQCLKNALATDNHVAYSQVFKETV
Text: as §1, §2, §3, §4

SMILES | EC50 [1] [nM] | EC50 [2] [nM]
CCCCc1nc2c(N)nc3cc(CCCN4CCN(CCCOCCOCCOCCOCCOCCOCCOCCOCCOCCOCCOCCOCCOCCOCCOCCOCCNC(=O)O[C@H]5CC[C@@]6(C)C(=CC[C@H]7[C@@H]8CC[C@H]([C@H](C)CCCC(C)C)[C@@]8(C)CC[C@@H]76)C5)CC4)ccc3c2n1CC(C)(CO)CO [Compound 14, (3beta,20R)-cholest-5-en-3-yl {51-[4-(3-{4-amino-2-butyl-1-[3-hydroxy-2-(hydroxymethyl)-2-methylpropyl]-1H-imidazo[4,5-c]quinolin-7-yl}propyl)piperazin-1-yl]-3,6,9,12,15,18,21,24,27,30,33,36,39,42,45,48-hexadecaoxahenpentacont-1-yl}carbamate] | 22600 | 236
CCCCc1nc2c(N)nc3cc(CCCN4CCN(C(=O)CCOCCOCCOCCOCCOCCOCCOCCOCCNC(=O)O[C@H]5CC[C@@]6(C)C(=CC[C@H]7[C@@H]8CC[C@H]([C@H](C)CCCC(C)C)[C@@]8(C)CC[C@@H]76)C5)CC4)ccc3c2n1CC(C)(CO)CO [Compound 19, (20R)-cholest-5-en-3beta-yl {27-[4-(3-{4-amino-2-butyl-1-[3-hydroxy-2-(hydroxymethyl)-2-methylpropyl]-1H-imidazo[4,5-c]quinolin-7-yl}propyl)piperazin-1-yl]-27-oxo-3,6,9,12,15,18,21,24-octaoxaheptacosan-1-yl}carbamate] | 20200 | 362
CCOCc1nc2c(N)nc3cc(CCCN4CCN(C(=O)CCOCCOCCOCCOCCOCCOCCOCCOCCOCCOCCOCCOCCNC(=O)CCOCCOCCOCCOCCNC(=O)O[C@H]5CC[C@@]6(C)C(=CC[C@H]7[C@@H]8CC[C@H]([C@H](C)CCCC(C)C)[C@@]8(C)CC[C@@H]76)C5)CC4)ccc3c2n1CC(C)(CO)CO [Compound 13, (3beta,20R)-cholest-5-en-3-yl {55-[4-(3-{4-amino-2-(ethoxymethyl)-1-[3-hydroxy-2-(hydroxymethyl)-2-methylpropyl]-1H-imidazo[4,5-c]quinolin-7-yl}propyl)piperazin-1-yl]-15,55-dioxo-3,6,9,12,19,22,25,28,31,34,37,40,43,46,49,52-hexadecaoxa-16-azapentapentacont-1-yl}carbamate] | 3330 | 223

Further lines, results first:

EC50 [1] [nM] | EC50 [2] [nM] | SMILES
339 | 53 | CCCCc1nc2c(N)nc3cc(CCCN4CCN(C(=O)CCOCCOCCOCCOCCOCCOCCOCCOCCOCCOCCOCCOCCOCCOCCOCCOCCOCCOCCOCCOCCOCCOCCOCCOCCOCCOCCOCCOCCOCCOCCOCCOCCOCCOCCOCCOCCNC(=O)CCOCCOCCOCCOCCNC(=O)O[C@H]5CC[C@@]6(C)C(=CC[C@H]7[C@@H]8CC[C@H]([C@H](C)CCCC(C)C)[C@@]8(C)CC[C@@H]76)C5)CC4)ccc3c2n1CC(C)(CO)CO [Compound 3, (3beta)-cholest-5-en-3-yl {127-[4-(3-{4-amino-2-butyl-1-[3-hydroxy-2-(hydroxymethyl)-2-methylpropyl]-1H-imidazo[4,5-c]quinolin-7-yl}propyl)piperazin-1-yl]-15,127-dioxo-3,6,9,12,19,22,25,28,31,34,37,40,43,46,49,52,55,58,61,64,67,70,73,76,79,82,85,88,91,94,97,100,103,106,109,112,115,118,121,124-tetracontaoxa-16-azaheptacosahect-1-yl}carbamate]
14900 | 1680 | CCCCc1nc2c(N)nc3cc(CCCN4CCN(CCCOCCOCCOCCOCCOCCOCCOCCOCCNC(=O)O[C@H]5CC[C@@]6(C)C(=CC[C@H]7[C@@H]8CC[C@H]([C@H](C)CCCC(C)C)[C@@]8(C)CC[C@@H]76)C5)CC4)ccc3c2n1CC(C)(CO)CO [Compound 23, (20R)-cholest-5-en-3beta-yl {27-[4-(3-{4-amino-2-butyl-1-[3-hydroxy-2-(hydroxymethyl)-2-methylpropyl]-1H-imidazo[4,5-c]quinolin-7-yl}propyl)piperazin-1-yl]-3,6,9,12,15,18,21,24-octaoxaheptacosan-1-yl}carbamate]
